What was measured:
Format in all cases: cell-based
E. coli NCTC 8196 [1] = experiment: Biofilm assay (Calgary Biofilm Device), MBEC; settings: E. coli NCTC 8196 24 h biofilm, 24 h challenge
Experimental: (§1) Biofilms of each test organism were grown in the Calgary Biofilm Device (commercially available as the MBEC Assay™ for Physiology & Genetics, Innovotech Inc., Edmonton, Alberta, Canada). The device, a micro-titre plated based assay, consists of two parts; a microtitre plate containing the inoculated test medium and a polystyrene lid with 96 identical pegs on which the microbial biofilm forms under gyrorotary incubation. The biofilm assay was conducted according to the MBEC™ assay protocol as supplied by the manufacturer, with slight modifications. Inocula of each test organism were prepared in MHB as described above and adjusted to provide a final inoculum density of ˜10^7 CFU ml^−1 (as confirmed by viable count). 150 μl of the inoculated media was transferred to each well of the 96-well microtitre plate and the assay plate lid, bearing 96 pegs was placed into the microtitre plate. The MBEC assay plates were placed in a gyrorotary incubator (37° C., 95% relative humidity) for 24 h to permit growth and comparison of 24 h biofilms of each test strain. Positive and negative growth controls were included in each plate (6 replicates). Initial and 24 h planktonic viable counts were measured, as were 24 h biofilm counts, expressed as CFU peg^−1, according to manufacturers instructions. After 24 h, the peg lid of the MBEC assay plate was gently rinsed three times. After rinsing, the peg lid of the MBEC assay was transferred to a ‘challenge’ plate. Serial dilutions of each imidazolium salt were prepared in 200 μl of MHB containing various concentrations of IL in each well. Positive growth control and sterility control were included in each assay plate. […] Biofilms were dislodged into recovery media by sonication for 5 minutes and the peg lid discarded. The recovery plate is incubated overnight and visually checked after 24 h for turbidity. In addition, optical density measurements for each plate were recorded at 550 nm. Clear wells were taken as evidence of biofilm eradication and the MBEC value was assigned as the lowest concentration at which no growth was observed after 24 h incubation. Plates were incubated for a further 24 h to confirm biofilm eradication concentrations.

K. aerogenes NCTC 7427 [2] = experiment: Biofilm assay (Calgary Biofilm Device), MBEC; settings: K. aerogenes NCTC 7427 24 h biofilm, 24 h challenge
Experimental: as §1

S. aureus PIII [3] = experiment: Biofilm assay (Calgary Biofilm Device), MBEC; settings: S. aureus PIII 24 h biofilm, 24 h challenge
Experimental: as §1

[4] = tested on: S. epidermidis ATCC 35984; experiment: Biofilm assay (Calgary Biofilm Device), MBEC; settings: S. epidermidis ATCC 35984 24 h biofilm, 24 h challenge
Experimental: as §1

C. tropicalis NCTC 7393 [5] = experiment: Biofilm assay (Calgary Biofilm Device), MBEC; settings: C. tropicalis NCTC 7393 24 h biofilm, 24 h challenge
Experimental: as §1

P. aeruginosa PA01 [6] = experiment: Biofilm assay (Calgary Biofilm Device), MBEC; settings: P. aeruginosa PA01 24 h biofilm, 24 h challenge
Experimental: as §1

E-MRSA 15 [7] = experiment: Biofilm assay (Calgary Biofilm Device), MBEC; settings: E-MRSA 15 24 h biofilm, 24 h challenge
Experimental: as §1

P. mirabilis NCTC 12442 [8] = experiment: Biofilm assay (Calgary Biofilm Device), MBEC; settings: P. mirabilis NCTC 12442 24 h biofilm, 24 h challenge
Experimental: as §1

B. cereus [9] = experiment: Biofilm assay (Calgary Biofilm Device), MBEC; settings: B. cereus 24 h biofilm, 24 h challenge
Experimental: as §1

E. coli NCTC 8196 [10] = experiment: Broth microdilution MIC/MBC; settings: for MBC: E. coli NCTC 8196, 99.9% killing; for MIC: E. coli NCTC 8196, 24 h at 37° C.
Experimental: (§2) Broth microdilution tests were performed according to NCCLS guidelines. Serial two-fold dilutions of each imidazolium salt (from an original working solution which had been 0.22 μm sterile filtered) in Mueller-Hinton Broth (MHB) (100 μl) were prepared in 96-well micro-titre plates over the range 0.0000625-1% w/v. The inoculum to be tested was prepared by adjusting the turbidity of an actively overnight growing broth culture in MHB to an optical density at 550 nm equivalent to 1×10^8 CFU/ml. The suspension was further diluted to provide a final inoculum density of 2×10^5 CFU/ml in MHB as verified by total viable count. The inoculum to be tested (100 μl, 2×10^5 CFU ml^−1) was added to each well of the microdilution trays which were incubated aerobically for 24 h at 37° C. Positive and negative growth controls were included in every assay (6 replicates). After determining the MICs, minimum bactericidal concentrations (MBCs) were determined by spreading 20 μl of suspension from wells showing no growth onto MHA plates, which were then incubated for 24 h and examined for 99.9% killing.

K. aerogenes NCTC 7427 [11] = experiment: Broth microdilution MIC/MBC; settings: for MBC: K. aerogenes NCTC 7427, 99.9% killing; for MIC: K. aerogenes NCTC 7427, 24 h at 37° C.
Experimental: as §2

[12] = tested on: S. epidermidis ATCC 35984; experiment: Broth microdilution MIC/MBC; settings: for MBC: S. epidermidis ATCC 35984, 99.9% killing; for MIC: S. epidermidis ATCC 35984, 24 h at 37° C.
Experimental: as §2

S. aureus ATCC 29213 = experiment: Broth microdilution MIC/MBC; settings: for MBC: S. aureus ATCC 29213, 99.9% killing; for MIC: S. aureus ATCC 29213, 24 h at 37° C.
Experimental: as §2

C. tropicalis NCTC 7393 [13] = experiment: Broth microdilution MIC/MBC; settings: for MBC: C. tropicalis NCTC 7393, 99.9% killing; for MIC: C. tropicalis NCTC 7393, 24 h at 37° C.
Experimental: as §2

P. aeruginosa PA01 [14] = experiment: Broth microdilution MIC/MBC; settings: for MBC: P. aeruginosa PA01, 99.9% killing; for MIC: P. aeruginosa PA01, 24 h at 37° C., read-out: MIC
Experimental: as §2

[15] = tested on: S. epidermidis ATCC 12228; experiment: Broth microdilution MIC/MBC; settings: for MBC: S. epidermidis ATCC 12228, 99.9% killing; for MIC: S. epidermidis ATCC 12228, 24 h at 37° C.
Experimental: as §2

E-MRSA 15 [16] = experiment: Broth microdilution MIC/MBC; settings: for MBC: E-MRSA 15, 99.9% killing; for MIC: E-MRSA 15, 24 h at 37° C.
Experimental: as §2

P. mirabilis NCTC 12442 [17] = experiment: Broth microdilution MIC/MBC; settings: for MBC: P. mirabilis NCTC 12442, 99.9% killing; for MIC: P. mirabilis NCTC 12442, 24 h at 37° C.
Experimental: as §2

B. cereus [18] = experiment: Broth microdilution MIC/MBC; settings: for MBC: 99.9% killing; for MIC: 24 h at 37° C.
Experimental: as §2

S. aureus PIII [19] = experiment: Broth microdilution MIC
Experimental: as §2

CCCCCCCCCCCC[n+]1cccc2ccccc21.[Br-] [1-alkyl-3-quinolinium bromides 12]
MBEC (E. coli NCTC 8196 [1]): 827.94 µM
MBEC (K. aerogenes NCTC 7427 [2]): 981.25 µM
MBEC (S. aureus PIII [3]): 619.5 µM
MBEC [4]: 413.97 µM
MBEC (C. tropicalis NCTC 7393 [5]): 413.87 µM
MBEC (P. aeruginosa PA01 [6]): 413.97 µM
MBEC (E-MRSA 15 [7]): 827.94 µM
MBEC (P. mirabilis NCTC 12442 [8]): 1655.88 µM
MBEC (B. cereus [9]): 774.25 µM
MBC (E. coli NCTC 8196 [10]): 38.7 µM
MIC (E. coli NCTC 8196 [10]): 25.81 µM
MBC (K. aerogenes NCTC 7427 [11]): 38.7 µM
MIC (K. aerogenes NCTC 7427 [11]): 12.9 µM
MBC [12]: 25.8 µM
MIC [12]: 12.9 µM
MBC (S. aureus ATCC 29213): 51.6 µM
MIC (S. aureus ATCC 29213): 25.81 µM
MBC (C. tropicalis NCTC 7393 [13]): 25.8 µM
MIC (C. tropicalis NCTC 7393 [13]): 12.9 µM
MBC (P. aeruginosa PA01 [14]): 90.33 µM
MIC (P. aeruginosa PA01 [14]): 51.64 µM
MBC [15]: 25.8 µM
MIC [15]: 12.9 µM
MBC (E-MRSA 15 [16]): 25.8 µM
MIC (E-MRSA 15 [16]): 25.8 µM
MBC (P. mirabilis NCTC 12442 [17]): 51.6 µM
MIC (P. mirabilis NCTC 12442 [17]): 25.81 µM
MBC (B. cereus [18]): 77.4 µM
MIC (B. cereus [18]): 51.63 µM
MIC (S. aureus PIII [19]): 25.81 µM

CCCCCCCCCCCCCC[n+]1cccc2ccccc21.[Br-] [1-alkyl-3-quinolinium bromides 14]
MBEC (E. coli NCTC 8196 [1]): 136.66 µM
MBEC (K. aerogenes NCTC 7427 [2]): 136.66 µM
MBEC (S. aureus PIII [3]): 91.11 µM
MBEC [4]: 68.33 µM
MBEC (C. tropicalis NCTC 7393 [5]): 68.33 µM
MBEC (P. aeruginosa PA01 [6]): 136.66 µM
MBEC (E-MRSA 15 [7]): 136.66 µM
MBEC (P. mirabilis NCTC 12442 [8]): 546.64 µM
MBEC (B. cereus [9]): 273.32 µM
MBC (E. coli NCTC 8196 [10]): 11.6 µM
MIC (E. coli NCTC 8196 [10]): 11.6 µM
MBC (K. aerogenes NCTC 7427 [11]): 11.6 µM
MIC (K. aerogenes NCTC 7427 [11]): 5.8 µM
MBC [12]: 5.8 µM
MIC [12]: 5.8 µM
MBC (S. aureus ATCC 29213): 5.8 µM
MIC (S. aureus ATCC 29213): 5.8 µM
MBC (C. tropicalis NCTC 7393 [13]): 3 µM
MIC (C. tropicalis NCTC 7393 [13]): 3 µM
MBC (P. aeruginosa PA01 [14]): 23.95 µM
MIC (P. aeruginosa PA01 [14]): 23.95 µM
MBC [15]: 5.8 µM
MIC [15]: 3 µM
MBC (E-MRSA 15 [16]): 5.8 µM
MIC (E-MRSA 15 [16]): 5.8 µM
MBC (P. mirabilis NCTC 12442 [17]): 5.8 µM
MIC (P. mirabilis NCTC 12442 [17]): 5.8 µM
MBC (B. cereus [18]): 29.75 µM
MIC (B. cereus [18]): 23.95 µM
MIC (S. aureus PIII [19]): 5.8 µM

CCCCCCCCCCCCCCCC[n+]1cccc2ccccc21.[Br-] [1-alkyl-3-quinolinium bromides 16]
MBEC (E. coli NCTC 8196 [1]): 561.92 µM
MBEC (K. aerogenes NCTC 7427 [2]): 561.92 µM
MBEC (S. aureus PIII [3]): 1123.84 µM
MBEC [4]: 561.92 µM
MBEC (C. tropicalis NCTC 7393 [5]): 561.92 µM
MBEC (P. aeruginosa PA01 [6]): 1123.84 µM
MBEC (E-MRSA 15 [7]): 1123.84 µM
MBEC (P. mirabilis NCTC 12442 [8]): 2247.68 µM
MBEC (B. cereus [9]): 1123.84 µM
MBC (E. coli NCTC 8196 [10]): 70.24 µM
MIC (E. coli NCTC 8196 [10]): 35.12 µM
MBC (K. aerogenes NCTC 7427 [11]): 35.12 µM
MIC (K. aerogenes NCTC 7427 [11]): 35.12 µM
MBC [12]: 35.12 µM
MIC [12]: 35.12 µM
MBC (S. aureus ATCC 29213): 70.24 µM
MIC (S. aureus ATCC 29213): 70.24 µM
MBC (C. tropicalis NCTC 7393 [13]): 70.24 µM
MIC (C. tropicalis NCTC 7393 [13]): 35.12 µM
MIC (P. aeruginosa PA01 [14]): 70.24 µM
MBC [15]: 35.12 µM
MIC [15]: 35.12 µM
MBC (E-MRSA 15 [16]): 70.24 µM
MIC (E-MRSA 15 [16]): 35.12 µM
MIC (P. mirabilis NCTC 12442 [17]): 70.24 µM
MIC (B. cereus [18]): 140.48 µM
MIC (S. aureus PIII [19]): 70.24 µM

Source: patent publication US20110144079A1, “ANTIMICROBIAL SYSTEM” (priority 2008, published 2011)
